ChEMBL document CHEMBL3045384, “Evaluating commercially available rodenticide baits for invasive Gambian giant pouched rats (Cricetomys gambianus)” (2010)

What was measured:
Assay type in all cases: functional
Cricetomys gambianus [1] = test: Rodenticidal activity against invasive Cricetomys gambianus (Gambian giant pouched rat) assessed as mean bait consumed using 0.0025% compound pellets bait by 7 day multiple-choice feeding trail method
Cricetomys gambianus [2] = test: Rodenticidal activity against invasive Cricetomys gambianus (Gambian giant pouched rat) assessed as mean duration to death using 0.0025% compound pellets bait by 7 day multiple-choice feeding trail method
Cricetomys gambianus [3] = test: Rodenticidal activity against invasive Cricetomys gambianus (Gambian giant pouched rat) assessed as rodent mortality using 0.0025% compound pellets bait by 7 day multiple-choice feeding trail method
Cricetomys gambianus [4] = test: Rodenticidal activity against invasive Cricetomys gambianus (Gambian giant pouched rat) assessed as rodent body weight using 0.0025% compound pellets bait by 7 day multiple-choice feeding trail method (reference value: 1.44 kg)
Cricetomys gambianus [5] = test: Rodenticidal activity against invasive Cricetomys gambianus (Gambian giant pouched rat) assessed as proportion of bait consumed using 0.0025% compound pellets bait by 7 day multiple-choice feeding trail method
Cricetomys gambianus [6] = test: Rodenticidal activity against invasive Cricetomys gambianus (Gambian giant pouched rat) assessed as mean bait consumed using 0.01% compound blocks bait by 7 day multiple-choice feeding trail method
Cricetomys gambianus [7] = test: Rodenticidal activity against invasive Cricetomys gambianus (Gambian giant pouched rat) assessed as mean duration to death using 0.01% compound blocks bait by 7 day multiple-choice feeding trail method
Cricetomys gambianus [8] = test: Rodenticidal activity against invasive Cricetomys gambianus (Gambian giant pouched rat) assessed as rodent body weight using 0.01% compound blocks bait by 7 day multiple-choice feeding trail method (reference value: 1.44 kg)
Cricetomys gambianus [9] = test: Rodenticidal activity against invasive Cricetomys gambianus (Gambian giant pouched rat) assessed as rodent mortality using 0.01% compound blocks bait by 7 day multiple-choice feeding trail method
Cricetomys gambianus [10] = test: Rodenticidal activity against invasive Cricetomys gambianus (Gambian giant pouched rat) assessed as proportion of bait consumed using 0.01% compound blocks bait by 7 day multiple-choice feeding trail method
Cricetomys gambianus [11] = test: Rodenticidal activity against invasive Cricetomys gambianus (Gambian giant pouched rat) assessed as mean duration to death using 0.0005% compound pellets bait by 7 day multiple-choice feeding trail method
Cricetomys gambianus [12] = test: Rodenticidal activity against invasive Cricetomys gambianus (Gambian giant pouched rat) assessed as rodent body weight using 0.0005% compound pellets bait by 7 day multiple-choice feeding trail method (reference value: 1.44 kg)
Cricetomys gambianus [13] = test: Rodenticidal activity against invasive Cricetomys gambianus (Gambian giant pouched rat) assessed as rodent mortality using 0.0005% compound pellets bait by 7 day multiple-choice feeding trail method
Cricetomys gambianus [14] = test: Rodenticidal activity against invasive Cricetomys gambianus (Gambian giant pouched rat) assessed as proportion of bait consumed using 0.0005% compound pellets bait by 7 day multiple-choice feeding trail method
Cricetomys gambianus [15] = test: Rodenticidal activity against invasive Cricetomys gambianus (Gambian giant pouched rat) assessed as mean bait consumed using 0.0005% compound pellets bait by 7 day multiple-choice feeding trail method
Cricetomys gambianus [16] = test: Rodenticidal activity against invasive Cricetomys gambianus (Gambian giant pouched rat) assessed as mean bait consumed using 0.005% compound pellets bait by 7 day multiple-choice feeding trail method
Cricetomys gambianus [17] = test: Rodenticidal activity against invasive Cricetomys gambianus (Gambian giant pouched rat) assessed as rodent mortality using 0.005% compound blocks bait by 7 day multiple-choice feeding trail method
Cricetomys gambianus [18] = test: Rodenticidal activity against invasive Cricetomys gambianus (Gambian giant pouched rat) assessed as rodent mortality using 0.005% compound pellets bait by 7 day multiple-choice feeding trail method
Cricetomys gambianus [19] = test: Rodenticidal activity against invasive Cricetomys gambianus (Gambian giant pouched rat) assessed as rodent body weight using 0.005% compound pellets bait by 7 day multiple-choice feeding trail method (reference value: 1.44 kg)
Cricetomys gambianus [20] = test: Rodenticidal activity against invasive Cricetomys gambianus (Gambian giant pouched rat) assessed as rodent body weight using 0.005% compound blocks bait by 7 day multiple-choice feeding trail method (reference value: 1.44 kg)
Cricetomys gambianus [21] = test: Rodenticidal activity against invasive Cricetomys gambianus (Gambian giant pouched rat) assessed as mean duration to death using 0.005% compound blocks bait by 7 day multiple-choice feeding trail method
Cricetomys gambianus [22] = test: Rodenticidal activity against invasive Cricetomys gambianus (Gambian giant pouched rat) assessed as mean bait consumed using 0.005% compound blocks bait by 7 day multiple-choice feeding trail method
Cricetomys gambianus [23] = test: Rodenticidal activity against invasive Cricetomys gambianus (Gambian giant pouched rat) assessed as proportion of bait consumed using 0.005% compound pellets bait by 7 day multiple-choice feeding trail method
Cricetomys gambianus [24] = test: Rodenticidal activity against invasive Cricetomys gambianus (Gambian giant pouched rat) assessed as proportion of bait consumed using 0.005% compound blocks bait by 7 day multiple-choice feeding trail method

Question: Which Activity (Cricetomys gambianus [1]) does the source give for O=c1oc2ccccc2c(O)c1C1CC(c2ccc(-c3ccc(Br)cc3)cc2)Cc2ccccc21 (centres undefined) [BRODIFACOUM] here?
Answer: Its Activity is 89 g.

Question: What about the Time (Cricetomys gambianus [2]) of the same compound?
Answer: Its Time is 12.2 days.

Question: What about the Activity (Cricetomys gambianus [3]) of the same compound?
Answer: The Activity was 100%.

Question: What about the Activity (Cricetomys gambianus [4]) of the same compound?
Answer: Its Activity is 1.37 kg.

Question: And the Activity (Cricetomys gambianus [5])?
Answer: The Activity was 0.39%.

Question: Which Activity (Cricetomys gambianus [6]) does the source give for CN(c1c(Br)cc(Br)cc1Br)c1c([N+](=O)[O-])cc([N+](=O)[O-])cc1C(F)(F)F [BROMETHALIN] here?
Answer: Its Activity is 25.58 g.

Question: And the Time (Cricetomys gambianus [7])?
Answer: The Time was 14 days.

Question: What about the Activity (Cricetomys gambianus [8]) of the same compound?
Answer: The Activity was 1.55 kg.

Question: And the Activity (Cricetomys gambianus [9])?
Answer: The Activity was 20%.

Question: And the Activity (Cricetomys gambianus [10])?
Answer: The Activity was 0.21%.

Question: O=C1c2ccccc2C(=O)C1C(=O)C(c1ccccc1)c1ccc(Cl)cc1 (centres undefined) [CHLOROPHACINONE] was tested. Which Time (Cricetomys gambianus [11]) did it give?
Answer: The Time was 11.7 days.

Question: And the Activity (Cricetomys gambianus [12])?
Answer: The Activity was 1.47 kg.

Question: And the Activity (Cricetomys gambianus [13])?
Answer: The Activity was 50%.

Question: What about the Activity (Cricetomys gambianus [14]) of the same compound?
Answer: The Activity was 0.3%.

Question: And the Activity (Cricetomys gambianus [15])?
Answer: The Activity was 89.7 g.

Question: Which Activity (Cricetomys gambianus [16]) does the source give for O=C1c2ccccc2C(=O)C1C(=O)C(c1ccccc1)c1ccccc1 [DIPHENADIONE] here?
Answer: The Activity was 106.2 g.

Question: And the Activity (Cricetomys gambianus [17])?
Answer: The Activity was 17%.

Question: And the Activity (Cricetomys gambianus [18])?
Answer: Its Activity is 0%.

Question: And the Activity (Cricetomys gambianus [19])?
Answer: The Activity was 1.47 kg.

Question: And the Activity (Cricetomys gambianus [20])?
Answer: The Activity was 1.5 kg.

Question: And the Time (Cricetomys gambianus [21])?
Answer: The Time was 12 days.

Question: What about the Activity (Cricetomys gambianus [22]) of the same compound?
Answer: Its Activity is 92.6 g.

Question: What about the Activity (Cricetomys gambianus [23]) of the same compound?
Answer: Its Activity is 0.35%.

Question: What about the Activity (Cricetomys gambianus [24]) of the same compound?
Answer: Its Activity is 0.3%.
